Patent publication US20150086530A1, “DOSING REGIMENS FOR THE TREATMENT OF POMPE DISEASE” (Amicus Therapeutics, Inc., priority 2012, published 2015)
Values joined by “and” are separate entries in the source; they are usually repeats but may differ in a detail not shown here. Equal values may be shown once. Read-outs that look alike come from different tables or passages of the source.

Test: Plasma AT2220 (1-deoxynojirimycin hydrochloride) pharmacokinetics by LC-MS/MS in Pompe patients
Type: in vivo, human
Details: for Tmax / half-life / AUC(0-t) / AUC(0-inf) / Cmax: human, plasma
Procedure: Blood samples for pharmacokinetic analysis will be collected before dosing 1-deoxynojirimycin hydrochloride and at 1 hour after administration of 1-deoxynojirimycin hydrochloride (i.e., immediately before initiation of the alglucosidase alfa infusion) and over the 24-hour period after initiation of the alglucosidase alfa infusion. Plasma and WBC GAA enzyme activity, plasma 1-deoxynojirimycin hydrochloride concentrations and plasma anti-rhGAA antibody titer will be determined from the collected blood samples at the times summarized in Table 2. A 12-lead ECG will be performed at the end of the alglucosidase alfa infusion, immediately after collection of the post-infusion blood sample.
Concentrations of 1-deoxynojirimycin hydrochloride in blood samples will be measured in plasma using a validated LC-MS/MS assay. GAA activity in plasma will be determined by a validated assay measuring enzyme activity using 4-MUG, with and without Con A. GAA protein levels will be measured by Western blotting using anti-human GAA antibody.
Non-compartmental pharmacokinetic parameters of AUC0-t, AUCinfinity, Cmax, tmax, kel and half-life will be calculated from plasma 1-deoxynojirimycin hydrochloride concentrations and plasma rhGAA enzyme levels. Pharmacokinetic parameters will be summarized by treatment using descriptive statistics. The AUC0-t, AUCinfinity ratios for GAA enzyme activity alone or after administration with 1-deoxynojirimycin hydrochloride will be calculated. Pharmacokinetic and pharmacodynamic data for those subjects receiving Myozyme® and Lumizyme® will be analyzed separately.

[1] = Cohort 3, 250 mg AT2220, Max, N=6
[2] = Cohort 3, 250 mg AT2220, Min, N=6
[3] = Cohort 3, 250 mg AT2220, individual subjects

## OC[C@H]1NC[C@H](O)[C@@H](O)[C@@H]1O [AT2220, (2R,3R,4R,5S)-2-hydroxymethyl-piperidine-3,4,5-triol]
50 mg and 100 mg doses
  linearity of plasma pharmacokinetics: approximately linear
50 mg and 100 mg doses, listed as 1-DNJ-HCl
  linearity of plasma pharmacokinetics: approximately linear PK
50 mg to 100 mg
  increase in Cmax and AUC with dose: ~2 fold
100 mg AT2220 (N = 6) relative to 50 mg
  Plasma AT2220 AUC0-∞ Ratio: 1.9
100 mg vs 50 mg dose
  AUC0-∞ Ratio, plasma AT2220: 1.9
250 mg AT2220 (N = 6) relative to 50 mg
  Plasma AT2220 AUC0-∞ Ratio: 3.2
[1]
  Plasma AT2220 AUC0-T: 29670 ng·h/mL
  Plasma AT2220 AUC0-∞: 29916 ng·h/mL
  Plasma AT2220 Cmax: 4750 ng/mL
  Plasma AT2220 T½: 4.6 h
[2]
  Plasma AT2220 AUC0-T: 18321 ng·h/mL
  Plasma AT2220 AUC0-∞: 18711 ng·h/mL
  Plasma AT2220 Cmax: 2090 ng/mL
  Plasma AT2220 Tmax: 2.0 h
  Plasma AT2220 T½: 3.0 h
[3]
  Plasma AT2220 AUC0-T: 19344 ng·h/mL and 29670 ng·h/mL and 22230 ng·h/mL and 18321 ng·h/mL and 24278 ng·h/mL
  Plasma AT2220 AUC0-∞: 19534 ng·h/mL and 29916 ng·h/mL and 22345 ng·h/mL and 18711 ng·h/mL and 24558 ng·h/mL
  Plasma AT2220 Cmax: 2090 ng/mL and 2740 ng/mL and 4750 ng/mL and 3620 ng/mL and 2350 ng/mL and 4220 ng/mL
  Plasma AT2220 Tmax: 2.0 h
Both sexes, oral, 50 mg and 100 mg doses, read-out: rate of absorption (Tmax)
  Tmax: 2 to 3 h
From 50 mg to 100 mg
  increase in mean AUC, plasma AT2220: 1.9 fold
  increase in mean Cmax, plasma AT2220: 1.8 fold
oral, 50 mg, 50 mg AT2220 (N = 4), Cohort 1, Arithmetic mean (SD), read-out: Plasma AT2220 t½ (converted)
  half-life: 3.1 h
oral, 50 mg, 50 mg AT2220 (N = 4), Cohort 1, Geometric mean (CV %), read-out: Plasma AT2220 AUC0-T
  AUC(0-t): 6970 ng·h/mL
oral, 50 mg, 50 mg AT2220 (N = 4), Cohort 1, Geometric mean (CV %), read-out: Plasma AT2220 AUC0-∞
  AUC(0-inf): 7010 ng·h/mL
oral, 50 mg, 50 mg AT2220 (N = 4), Cohort 1, Geometric mean (CV %), read-out: Plasma AT2220 Cmax
  Cmax: 1040 ng/mL
oral, 50 mg, 50 mg AT2220 (N = 4), Cohort 1, Median (range), read-out: Plasma AT2220 Tmax
  Tmax: 2 h
oral, 100 mg, 100 mg AT2220 (N = 6), Cohort 2, Arithmetic mean (SD), read-out: Plasma AT2220 t½ (converted)
  half-life: 3.4 h
oral, 100 mg, 100 mg AT2220 (N = 6), Cohort 2, Geometric mean (CV %), read-out: Plasma AT2220 AUC0-T
  AUC(0-t): 13000 ng·h/mL
oral, 100 mg, 100 mg AT2220 (N = 6), Cohort 2, Geometric mean (CV %), read-out: Plasma AT2220 AUC0-∞
  AUC(0-inf): 13100 ng·h/mL
oral, 100 mg, 100 mg AT2220 (N = 6), Cohort 2, Geometric mean (CV %), read-out: Plasma AT2220 Cmax
  Cmax: 1860 ng/mL
oral, 100 mg, 100 mg AT2220 (N = 6), Cohort 2, Median (range), read-out: Plasma AT2220 Tmax
  Tmax: 3 h
oral, 250 mg, 250 mg AT2220 (N = 6), Cohort 3, Arithmetic mean (SD), read-out: Plasma AT2220 t½ (converted)
  half-life: 3.7 h
oral, 250 mg, 250 mg AT2220 (N = 6), Cohort 3, Geometric mean (CV %), read-out: Plasma AT2220 AUC0-T
  AUC(0-t): 21800 ng·h/mL
oral, 250 mg, 250 mg AT2220 (N = 6), Cohort 3, Geometric mean (CV %), read-out: Plasma AT2220 AUC0-∞
  AUC(0-inf): 22100 ng·h/mL
oral, 250 mg, 250 mg AT2220 (N = 6), Cohort 3, Geometric mean (CV %), read-out: Plasma AT2220 Cmax
  Cmax: 3150 ng/mL
oral, 250 mg, 250 mg AT2220 (N = 6), Cohort 3, Median (range), read-out: Plasma AT2220 Tmax
  Tmax: 2 h
oral, 250 mg, Cohort 3, 250 mg AT2220, Geometric Mean, N=6, read-out: Plasma AT2220 AUC0-T
  AUC(0-t): 21800 ng·h/mL
oral, 250 mg, Cohort 3, 250 mg AT2220, Geometric Mean, N=6, read-out: Plasma AT2220 AUC0-∞
  AUC(0-inf): 22100 ng·h/mL
oral, 250 mg, Cohort 3, 250 mg AT2220, Geometric Mean, N=6, read-out: Plasma AT2220 Cmax
  Cmax: 3150 ng/mL
oral, 250 mg, Cohort 3, 250 mg AT2220, Geometric Mean, N=6, read-out: Plasma AT2220 Tmax
  Tmax: 2.3 h
oral, 250 mg, Cohort 3, 250 mg AT2220, Geometric Mean, N=6, read-out: Plasma AT2220 T½ (converted)
  half-life: 3.7 h
oral, 250 mg, Cohort 3, 250 mg AT2220, Mean, N=6, read-out: Plasma AT2220 AUC0-T
  AUC(0-t): 22100 ng·h/mL
oral, 250 mg, Cohort 3, 250 mg AT2220, Mean, N=6, read-out: Plasma AT2220 AUC0-∞
  AUC(0-inf): 22400 ng·h/mL
oral, 250 mg, Cohort 3, 250 mg AT2220, Mean, N=6, read-out: Plasma AT2220 Cmax
  Cmax: 3300 ng/mL
oral, 250 mg, Cohort 3, 250 mg AT2220, Mean, N=6, read-out: Plasma AT2220 Tmax
  Tmax: 2.3 h
oral, 250 mg, Cohort 3, 250 mg AT2220, Mean, N=6, read-out: Plasma AT2220 T½ (converted)
  half-life: 3.7 h
oral, 250 mg, Cohort 3, 250 mg AT2220, Median, N=6, read-out: Plasma AT2220 AUC0-T
  AUC(0-t): 20800 ng·h/mL
oral, 250 mg, Cohort 3, 250 mg AT2220, Median, N=6, read-out: Plasma AT2220 AUC0-∞
  AUC(0-inf): 20900 ng·h/mL
oral, 250 mg, Cohort 3, 250 mg AT2220, Median, N=6, read-out: Plasma AT2220 Cmax
  Cmax: 3180 ng/mL
oral, 250 mg, Cohort 3, 250 mg AT2220, Median, N=6, read-out: Plasma AT2220 Tmax
  Tmax: 2 h
oral, 250 mg, Cohort 3, 250 mg AT2220, Median, N=6, read-out: Plasma AT2220 T½ (converted)
  half-life: 3.6 h
oral, 250 mg, Cohort 3, 250 mg AT2220, individual subjects, read-out: Plasma AT2220 AUC0-T
  AUC(0-t): 18700 ng·h/mL
oral, 250 mg, Cohort 3, 250 mg AT2220, individual subjects, read-out: Plasma AT2220 AUC0-∞
  AUC(0-inf): 19300 ng·h/mL
oral, 250 mg, Cohort 3, 250 mg AT2220, individual subjects, read-out: Plasma AT2220 Tmax
  Tmax: 3 h
oral, 250 mg, Cohort 3, 250 mg AT2220, individual subjects, read-out: Plasma AT2220 T½ (converted)
  half-life: 4.6 h
po, 50 mg, 50 mg single oral dose (N=4), arithmetic mean (SD), read-out: t½, plasma AT2220 (converted)
  half-life: 3.1 h
po, 50 mg, 50 mg single oral dose (N=4), geometric mean (CV %), read-out: AUC0-T, plasma AT2220
  AUC(0-t): 6970 ng·h/mL
po, 50 mg, 50 mg single oral dose (N=4), geometric mean (CV %), read-out: AUC0-∞, plasma AT2220
  AUC(0-inf): 7010 ng·h/mL
po, 50 mg, 50 mg single oral dose (N=4), median (range), read-out: Tmax, plasma AT2220
  Tmax: 2 h
po, 50 mg, 50 mg single oral dose (N=4, Cohort 1), geometric mean (CV %), read-out: Cmax, plasma AT2220
  Cmax: 1040 ng/mL
po, 100 mg, 100 mg single oral dose (N=6), arithmetic mean (SD), read-out: t½, plasma AT2220 (converted)
  half-life: 3.4 h
po, 100 mg, 100 mg single oral dose (N=6), geometric mean (CV %), read-out: AUC0-T, plasma AT2220
  AUC(0-t): 13000 ng·h/mL
po, 100 mg, 100 mg single oral dose (N=6), geometric mean (CV %), read-out: AUC0-∞, plasma AT2220
  AUC(0-inf): 13100 ng·h/mL
po, 100 mg, 100 mg single oral dose (N=6), median (range), read-out: Tmax, plasma AT2220
  Tmax: 3 h
po, 100 mg, 100 mg single oral dose (N=6, Cohort 2), geometric mean (CV %), read-out: Cmax, plasma AT2220
  Cmax: 1860 ng/mL
To 250 mg
  increase in mean AUC, plasma AT2220: 3.2 fold
  increase in mean Cmax, plasma AT2220: 3.0 fold
